Data: patent publication US6329497A, “Sandramycin analogs” (The Scripps Research Institute, priority 1999, dated 2001)

Legend:
[1] = tested on: calf thymus DNA and 5'-d(GCATGC)2; assay: DNA binding affinity trends over calf thymus DNA and 5'-d(GCATGC)2 (fluorescence quenching)
Protocol: Apparent absolute DNA binding constants for 1-22 and related agents including luzopeptin A were obtained by measurement of the fluorescence quenching upon titration addition of calf thymus DNA or the deoxyoligonucleotides 5'-d(GCXXGC)2 where XX=AT, TA, GC, and CG. For each agent, the characteristic fluorescence excitation and emission spectra were recorded in 10 mM Tris-HCl, 75 mM NaCl (pH 7.4) buffer, FIG. 6. For the DNA binding assays which quantitate the fluorescence quenching, excitation outside the absorbance range of DNA was employed and the most intense fluorescence emission at a longer wavelength monitored. For assay of the DNA-induced fluorescence quenching of the agents, a 2 mL buffer solution of Tris-HCl (pH 7.4) and 75 mM NaCl was employed. For titration, small aliquots of DNA were added to solutions of the agents in Tris-HCl buffer (pH 7.4).
Despite these precautions, the fluorescence for a number of the analog solutions decreased for several of analogs (11, 14, 17, 21 and 22) and the quality of the binding constants for these should be viewed with caution. […] The titrations were carried out with 15 min time intervals between DNA additions to allow binding equilibration. […] The titration fluorescence quenching was analyzed by Scatchard analysis (Scatchard, G. Ann. N. Y. Acad. Sci. 1949, 51, 660) with the following equation: rb /c=Kb n-Kb rb where rb is the number of agent molecules bound per DNA base-pair, c is the free drug concentration, Kb is the apparent association constant, and n is the number of agent binding sites per base-pair.
A pronounced downward curvature in an infinite lattice such as calf thymus DNA is recognized to arise in part from neighbor exclusion where the binding of an agent excludes the subsequent binding at nearby sites. This exclusion manifests itself in the plot by a reduction in the apparent binding constant as the DNA lattice approaches saturation and the probability of finding a free site is diminished. In the calf thymus DNA studies, the binding also entails multiple classes of independent binding sites or modes. For simplicity, a linear fit of the high affinity binding sites was used to determine the binding constant attributable to bis-intercalation. For the deoxyoligonucleotides, the curvature can be more simply attributed to multiple classes of independent binding sites or binding modes. There are a number of mathematical methods to deconvolute the curved plot into such individual binding events. In the deoxyoligonucleotide studies, a non-linear fit described by Feldman was also used to deconvolute the curves. The model assumes one ligand with two binding types or sites. Since the number of binding sites is limited, we have interpreted this to indicate a high affinity bis-intercalation and a lower affinity binding potentially involving mono-intercalation. The formula was fit using the JMP^22 statistical fitting program using an initial approximation of the two n values and fitting for K1 and K2.
After 5 min of stirring, an initial fluorescence reading was taken with minimum exposure to the excitation beam. […] The excitation and emission wavelengths used for each analog varied and can be found in FIG. 6. The results of the titration were analyzed by Scatchard analysis. The linear portion of the Scatchard plot was used to determine the high affinity binding constants. In the case of the deoxyoligonucleotide study, a non-linear fit of the curve as described in the text was also used to determine the high affinity binding constant (Feldman, H. A. Anal. Biochem. 1972, 48, 317).

L1210 cell line = assay: In vitro cytotoxic activity, L1210; type: cell-based
[2] = target: HIV-1 reverse transcriptase (Human immunodeficiency virus type 1 group M subtype B, UniProt P04585); assay: Inhibition of HIV-1 reverse transcriptase; type: biochemical
Protocol: The assay was performed according to an available procedure (Goldman, M. E.; Salituro, G. S.; Bowen, J. A.; Williamson, J. M.; Zink, D. L.; Schleif, W. A.; Emini, E. A. Mol. Pharmacol. 1990, 38, 20) with slight modification. A 45 L solution of reaction buffer containing 55 mM Tris·HCl, pH 8.2, 80 mM potassium chloride, 12 mM MgCl2, 1 mM DTT, 50 M EGTA, 2.5 g/mL rA·dT, 0.5 Ci of [^3 H]TTP, 10 M TTP, 1 mg/mL BSA, and 0.01% Triton X-100 was added to a well in a filter cluster plate (Millipore MAHV N45). The reverse transcription reaction was initiated upon addition of the reverse transcriptase (1 unit; 1 unit=10 pmol of [^3 H]TMP incorporated/60 min at 37° C.). The plate was incubated at 37° C. for 90 min. The plate was then placed on ice and 200 µL of 13% trichloroacetic acid and 10 mM sodium pyrophosphate was added to each well. The plate was chilled for 2 h and the liquid vacuumed out through the filter using a Millipore manifold (Millipore MAVM 09601). The precipitate was washed with 1 M and 10 mM sodium pyrophosphate twice. The filter was punched out and placed in a scintillation vial. 4 mL of cocktail was added. Radioactivity was determined by liquid scintillation counting.
The effects of sandramycin and its analogs on HIV-1 reverse transcriptase were determined by incubating the agents and the rA·dT containing buffer at 25° C. for 30 min prior to addition of the reverse transcriptase. Reactions containing no agents were used as controls, and those lacking the transcriptase were used as blanks.

five cell lines = assay: In vitro cytotoxic activity of key substructure analogs, five cell lines; type: cell-based; settings: five cell lines

CC(C)[C@H]1C(=O)OC[C@@H](NC(=O)c2nc3cc(Cl)ccc3cc2O)C(=O)N2CCCC[C@H]2C(=O)NCC(=O)N(C)CC(=O)N(C)[C@@H](C(C)C)C(=O)OC[C@@H](NC(=O)c2nc3cc(Cl)ccc3cc2O)C(=O)N2CCCC[C@H]2C(=O)NCC(=O)N(C)CC(=O)N1C [compound 16, (N-(7-Chloro-3-hydroxyquinolinyl-2-carbonyl)-D-Ser-Pip-Gly-Sar-NMe-Val). sub.2 (Serine Hydroxyl) Dilactone]
DNA binding affinity, in words [1]: nearly indistinguishable from 1
cytotoxic potency, fold less potent than 1 (L1210 cell line): 0.5
HIV-1 reverse transcriptase inhibition, in words [2]: Comparable but slightly less potent inhibition

COc1cc2ccccc2nc1C(=O)N[C@@H]1COC(=O)[C@H](C(C)C)N(C)C(=O)CN(C)C(=O)CNC(=O)[C@@H]2CCCCN2C(=O)[C@H](NC(=O)c2nc3ccccc3cc2OC)COC(=O)[C@H](C(C)C)N(C)C(=O)CN(C)C(=O)CNC(=O)[C@@H]2CCCCN2C1=O [compound 3, (N-(3-Methoxy-quinolinyl-2-carbonyl)-D-ser-Pip-Gly-Sar-NMe-Val)2 (Serine Hydroxyl) Dilactone]
HIV-1 reverse transcriptase inhibition, in words [2]: roughly maintain the HIV-1 reverse transcriptase inhibitory potency of 1
reduction in inhibitory potency on O-alkylation of the C3 phenol [2]: approx. 10

CC(C)[C@H]1C(=O)OC[C@@H](NC(=O)c2ccccn2)C(=O)N2CCCC[C@H]2C(=O)NCC(=O)N(C)CC(=O)N(C)[C@@H](C(C)C)C(=O)OC[C@@H](NC(=O)c2ccccn2)C(=O)N2CCCC[C@H]2C(=O)NCC(=O)N(C)CC(=O)N1C [compound 10, (N-(Pyridyl-2-carbonyl)-D-Ser-Pip-Gly-Sar-NMe-Val)2 (Serine Hydroxyl) Dilactone]
cytotoxic potency, fold less potent than 4 (L1210 cell line): 4×10^5
cytotoxic potency, fold less potent than 8 (L1210 cell line): 1000
HIV-1 reverse transcriptase inhibition, in words [2]: much less effective

Sandramycin Bis-O-benzyl Ether [compound 2]
cytotoxic potency, fold less potent than 1 (L1210 cell line): 1000
fold less potent than 1 (five cell lines): 20-1000

Cc1ccc2nc(C(=O)N[C@@H]3COC(=O)[C@H](C(C)C)N(C)C(=O)CN(C)C(=O)CNC(=O)[C@@H]4CCCCN4C(=O)[C@H](NC(=O)c4nc5ccc(C)cc5cc4O)COC(=O)[C@H](C(C)C)N(C)C(=O)CN(C)C(=O)CNC(=O)[C@@H]4CCCCN4C3=O)c(O)cc2c1 [compound 14, (N-(-3-Hydroxy-6-methylquinolinyl-2-carbonyl)-D-Ser-Pip-Gly-Sar-NMe-Val). sub.2 (Serine Hydroxyl) Dilactone]
DNA binding affinity, in words [1]: consistently slightly less effective
cytotoxic potency, fold less potent than 1 (L1210 cell line): 1
HIV-1 reverse transcriptase inhibition, in words [2]: Comparable but slightly less potent inhibition

CC(C)C1C(=O)OCC(NC(=O)c2nc3ccccc3nc2OCc2ccccc2)C(=O)N2CCCCC2C(=O)NCC(=O)N(C)CC(=O)N(C)C(C(C)C)C(=O)OCC(NC(=O)c2nc3ccccc3nc2OCc2ccccc2)C(=O)N2CCCCC2C(=O)NCC(=O)N(C)CC(=O)N1C [compound 20, (N-(3-Benzyl-oxyquinoxalyl-2-carbonyl)-D-Ser-Pip-Gly-Sar-NMe-Val)2 (Serine Hydroxyl) Dilactone]
cytotoxic potency, fold less potent than 19 (L1210 cell line): 7

(N-(3-Benzyl-oxypyridyl-2-carbonyl)-D-Ser-Pip-Gly-Sar-NMe-Val)2 (Serine Hydroxyl) Dilactons [compound 9]
cytotoxic potency, fold less potent than 2 (L1210 cell line): 4000
cytotoxic potency, fold less potent than 8 (L1210 cell line): 1000

(N-(3-Benzyloxy-7-chloroquinolinyl-2-carbonyl)-D-Ser-Pip-Gly-Sar-NMe-Val)2 (Serine Hydroxyl) Dilactone [compound 17]
reduction of the binding affinity versus 16 ([1]; O-benzylation of chromophore phenol): 2.4 to 2.7 kcal/mol
reduction in inhibitory potency on O-alkylation of the C3 phenol [2]: > 500

COc1ccc2nc(C(=O)N[C@@H]3COC(=O)[C@H](C(C)C)N(C)C(=O)CN(C)C(=O)CNC(=O)[C@@H]4CCCCN4C(=O)[C@H](NC(=O)c4ccc5cc(OC)ccc5n4)COC(=O)[C@H](C(C)C)N(C)C(=O)CN(C)C(=O)CNC(=O)[C@@H]4CCCCN4C3=O)ccc2c1 [compound 13, (N-(6-Methoxyquinolinyl-2-carbonyl)-D-Ser-Pip-Gly-Sar-NMe-Val)2 (Serine Hydroxyl) Dilactone]
cytotoxic potency, fold less potent than 4 (L1210 cell line): 2
cytotoxic potency, fold less potent than 11 (L1210 cell line): 10
HIV-1 reverse transcriptase inhibition, in words [2]: Comparable but slightly less potent inhibition

CC(C)C1C(=O)OCC(NC(=O)c2cc3ccccc3cc2OCc2ccccc2)C(=O)N2CCCCC2C(=O)NCC(=O)N(C)CC(=O)N(C)C(C(C)C)C(=O)OCC(NC(=O)c2cc3ccccc3cc2OCc2ccccc2)C(=O)N2CCCCC2C(=O)NCC(=O)N(C)CC(=O)N1C [compound 6, (N-(3-Benzyl-oxynaphthyl-2-carbonyl)-D-Ser-Pip-Gly-Sar-NMe-Val)2 (Serine Hydroxyl) Dilactone]
cytotoxic potency, fold less potent than 2 (L1210 cell line): > 5000
cytotoxic potency, fold less potent than 5 (L1210 cell line): > 500

CC(C)[C@H]1C(=O)OC[C@@H](NS(=O)(=O)CC[Si](C)(C)C)C(=O)N2CCCC[C@H]2C(=O)NCC(=O)N(C)CC(=O)N(C)[C@@H](C(C)C)C(=O)OC[C@@H](NC(=O)c2nc3ccccc3cc2O)C(=O)N2CCCC[C@H]2C(=O)NCC(=O)N(C)CC(=O)N1C [compound 24, N^1 -SES,N^6 -(3-hydroxylquinoline-2-carbonyl) (D-Ser-Pip-Gly-Sar-NMe-Val)2 (Serine Hydroxyl) Dilactone]
fold less potent than 1 (five cell lines): 5000-10000

COc1ccc2nc(C(=O)NC3COC(=O)C(C(C)C)N(C)C(=O)CN(C)C(=O)CNC(=O)C4CCCCN4C(=O)C(NC(=O)c4nc5ccc(OC)cc5cc4OCc4ccccc4)COC(=O)C(C(C)C)N(C)C(=O)CN(C)C(=O)CNC(=O)C4CCCCN4C3=O)c(OCc3ccccc3)cc2c1 [compound 12, (N-(3-Benzyloxy-6-methoxy-quinolinyl-2-carbonyl)-D-Ser-Pip-Gly-Sar-NMe-Val)2 (Serine Hydroxyl) Dilactone]
cytotoxic potency, fold less potent than 2 (L1210 cell line): 0.8
cytotoxic potency, fold less potent than 11 (L1210 cell line): 400

COc1ccc2nc(C(=O)NC3COC(=O)C(C(C)C)N(C)C(=O)CN(C)C(=O)CNC(=O)C4CCCCN4C(=O)C(NC(=O)c4nc5ccc(OC)cc5cc4O)COC(=O)C(C(C)C)N(C)C(=O)CN(C)C(=O)CNC(=O)C4CCCCN4C3=O)c(O)cc2c1 [compound 11, (N-(3-Hydroxy-6-Methoxy-quinolinyl-3-carbonyl)-D-Ser-Pip-Gly-Sar-NMe-Val)2 (Serine Hydroxyl) Dilactone]
DNA binding affinity, in words [1]: slightly less effective
cytotoxic potency, fold less potent than 1 (L1210 cell line): 2
